Test results: patent US20080085563A1, “Detection of Gadolinium Chelates” (IDEXX LABORATORIES, INC., priority 2006, published 2008)
Where a SMILES comes first, the peptide text is derived from it.

How the values were obtained:
[1] = weak acid of low-pH buffering system; first value; cited from earlier work
[2] = Masking of calcium interference in the gadolinium-arsenazo III assay
From the text: For instance, while calcium interference decreases exponentially with pH, it is not completely eliminated. In addition, the affinity of gadolinium for arsenazo dye decreases with pH, reducing both linearity and sensitivity of gadolinium response. In one aspect, the method of the invention allows for a pH window where the pH is high enough to allow highly efficient measurement of gadolinium chelate while reducing calcium interference by 99% relative to its maximal binding to Arsenazo at pH 6. Nonetheless, even within this optimally selective pH window, interference from both calcium and ferric ions is substantial. To remedy this persistent residual calcium interference, in another aspect of the invention, the compound HDMP, commonly used as an oral iron chelator for treatment of thalassemia (iron overload), is added to the reagent of the invention to effectively mask interference from both calcium and ferric ions without substantially reducing gadolinium assay response. In general, chelating agents, including EDTA, EGTA, TTHA, EDTPO, phenanthroline, and 8-hydroxyquinoline have a greater affinity for rare earth metals, such as gadolinium, than for calcium. […] This is obtained by subtracting the absorbance of each solution at 750 nm from its absorbance at 654 nm, reducing interference from wavelength-independent absorbance due to sample turbidity.

[3] = Effect of masking agent on gadolinium response in the arsenazo III assay; settings: optimal amount of HDMP, pH 2.4
From the text: In general, chelating agents, including EDTA, EGTA, TTHA, EDTPO, phenanthroline, and 8-hydroxyquinoline have a greater affinity for rare earth metals, such as gadolinium, than for calcium. HDMP, however, is unusual in its ability to bind calcium preferentially over gadolinium. […] This essentially, although not completely, eliminates the interference by calcium with the method of the invention. […] In one aspect of the invention, the reagent includes HDMP. For example, a reagent of the invention can contain about 10 to about 2000 mM HDMP. In various aspects, the reagent contains about 10 to about 800 mM HDMP, and more particularly about 70 mM HDMP. […] Higher levels of HDMP may be selected to further remove calcium and iron interference based upon analytical sensitivity, matrix effects (e.g., diet, drugs, toxicants, […] icterus), solubility, sample quality (e.g., hemolysis) and storage stability. […] Commercial […]®, Berlex Laboratories, Wayne N.J.) ranging from 50-400 μM was added to 0.07 mL of canine serum. The canine serum was added to the arsenazo III reagent in varying amounts. […] This is obtained by subtracting the absorbance of each solution at 750 nm from its absorbance at 654 nm, reducing interference from wavelength-independent absorbance due to sample turbidity.

[4] = Masking of ferric ion interference in the gadolinium-arsenazo III assay; settings: 70 mM HDMP in reagent
Procedure: In one aspect of the invention, the reagent includes HDMP. For example, a reagent of the invention can contain about 10 to about 2000 mM HDMP. In various aspects, the reagent contains about 10 to about 800 mM HDMP, and more particularly about 70 mM HDMP. […] Higher levels of HDMP may be selected to further remove calcium and iron interference based upon analytical sensitivity, matrix effects (e.g., diet, drugs, toxicants, […] icterus), solubility, sample quality (e.g., hemolysis) and storage stability. […] The ferric sulfate increased the net absorbance of the solution ([…] nm minus A750 nm). This amount of ferric ion is approximately 10 times the amount that would be contributed by 0.07 mL of a normal canine serum sample.

| Structure (SMILES) | Acid pKa [1] | calcium masked ([2]; 70 mM HDMP in reagent) [%] | reduction in calcium interference ([2]; optimal amount of HDMP, pH 2.4) | reduction in gadolinium signal [3] | ferric ion masked [4] |
| --- | --- | --- | --- | --- | --- |
| O=C1CC(=O)NC(=O)N1 [Barbituric acid] | 4.04 | – | – | – | – |
| NCC(=O)NCC(=O)O [Diglycine] (H-Gly-Gly-OH) | 3.14 | – | – | – | – |
| Cc1c(O)c(=O)ccn1C [HDMP, 3-hydroxy-1,2-dimethyl-4(1H)-pyridone] | – | 87 | greater than 90% | less than 10% | greater than 95% |
